In patent US9365572B2, “PI3K and/or mTOR inhibitor” (XUANZHU PHARMA CO., LTD., priority 2012, dated 2016):

Key:
ERK2 = ERK2 (Homo sapiens (Human), UniProt P28482); assay: Kinase selectivity, Mobility shift assay; type: biochemical
Method: (§1) Object: In this assay, the inhibitory activity of the test substance on the kinases listed in Table 3 was determined, and therefore the selectivity of the present compound was determined.
(§2) Except for the BRAF V600E kinase in Table 3, the Mobility shift assay was used for other kinases.
(§3) 1. Preparation of Agents:
(§4) • 1.1 1-fold kinase buffer without MnCl2: 50 mM HEPES, pH 7.5, 0.0015% Brij-35, 10 mM MgCl2, 2 mM DTT. • 1.2 1-fold kinase buffer with MnCl2: 50 mM HEPES, pH 7.5, 0.0015% Brij-35, 10 mM MgCl2, 10 mM MnCl2, 2 mM DTT. • 1.3 Termination solution: 100 mM HEPES, pH 7.5, 0.0015% Brij-35, 0.2% Coating Reagent#3, 50 mM EDTA. • 1.4 2.5-fold kinase solution: The kinase was added to the 1-fold kinase buffer to form a 2.5-fold kinase solution. • 1.5 2.5-fold substrate solution: FAM fluorescence-labelled polypeptide and ATP were added to the 1-fold kinase buffer to form a 2.5-fold substrate solution. 2. Preparation of 5-fold compound
(§5) The final test concentration of the compound was 10 μM at maximum. Firstly, a 50-fold concentration (i.e. 500 μM) was prepared with 100% DMSO. The compound was diluted with 100% DMSO by 5 folds at 5 concentrations (successively 500 μM, 100 μM, 20 μM, 4 μM, and 0.8 μM). After diluting with 1-fold kinase buffer by 10 folds, 5 μl of the samples were transferred to a 384-well reaction plate. Two negative control wells and two positive control wells were set at each line respectively. Replication was made in a 96-well plate in five concentrations of 5-fold compound. 10% DMSO was added to the positive control well, and 5 μl of EDTA (250 mM) was added to the negative control well.
(§6) • 3.1 To the 384-well reaction plate was added 5-fold compound dissolved in 10% DMSO at 5 μl/well. • 3.2 To the 384-well reaction plate was added 2.5-fold kinase solution at 10 μl/well. […] 4. […] 2. […] 3. […] 4.

AXL = AXL (Homo sapiens (Human), UniProt P30530); assay: Kinase selectivity, Mobility shift assay; type: biochemical
Method: as §1, §2, §3, §4, §5, §6

[1] = tested on: kinases listed in Table 3; assay: Kinase selectivity, whole panel of Table 3; type: biochemical; conditions: summary in words
Method: as §1, §2, §4
The final test concentration of the compound was 10 μM at maximum. Firstly, a 50-fold concentration (i.e. 500 μM) was prepared with 100% DMSO. The compound was diluted with 100% DMSO by 5 folds at 5 concentrations (successively 500 μM, 100 μM, 20 μM, 4 μM, and 0.8 μM). […]
• 3.1 To the 384-well reaction plate was added 5-fold compound dissolved in 10% DMSO at 5 μl/well. • 3.2 To the 384-well reaction plate was added 2.5-fold kinase solution at 10 μl/well. […] The conversion was read from Caliper. […]

[2] = tested on: Glutamate, NMDA, Phencyclidine; assay: Radioligand binding assay No. 233000; conditions: test substance 10 μM; rat

ERK2, sequence (P28482 whole entry, species assumed): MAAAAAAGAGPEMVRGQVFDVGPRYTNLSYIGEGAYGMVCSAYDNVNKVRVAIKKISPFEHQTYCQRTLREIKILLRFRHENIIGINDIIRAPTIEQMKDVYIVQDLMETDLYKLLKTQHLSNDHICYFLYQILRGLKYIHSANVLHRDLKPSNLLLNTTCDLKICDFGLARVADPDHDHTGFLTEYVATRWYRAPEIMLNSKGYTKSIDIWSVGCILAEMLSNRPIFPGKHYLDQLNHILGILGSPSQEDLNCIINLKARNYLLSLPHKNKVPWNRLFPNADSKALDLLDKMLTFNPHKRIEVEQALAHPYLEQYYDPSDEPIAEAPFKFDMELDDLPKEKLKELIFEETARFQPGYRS
AXL, sequence (P30530 26-894, species assumed): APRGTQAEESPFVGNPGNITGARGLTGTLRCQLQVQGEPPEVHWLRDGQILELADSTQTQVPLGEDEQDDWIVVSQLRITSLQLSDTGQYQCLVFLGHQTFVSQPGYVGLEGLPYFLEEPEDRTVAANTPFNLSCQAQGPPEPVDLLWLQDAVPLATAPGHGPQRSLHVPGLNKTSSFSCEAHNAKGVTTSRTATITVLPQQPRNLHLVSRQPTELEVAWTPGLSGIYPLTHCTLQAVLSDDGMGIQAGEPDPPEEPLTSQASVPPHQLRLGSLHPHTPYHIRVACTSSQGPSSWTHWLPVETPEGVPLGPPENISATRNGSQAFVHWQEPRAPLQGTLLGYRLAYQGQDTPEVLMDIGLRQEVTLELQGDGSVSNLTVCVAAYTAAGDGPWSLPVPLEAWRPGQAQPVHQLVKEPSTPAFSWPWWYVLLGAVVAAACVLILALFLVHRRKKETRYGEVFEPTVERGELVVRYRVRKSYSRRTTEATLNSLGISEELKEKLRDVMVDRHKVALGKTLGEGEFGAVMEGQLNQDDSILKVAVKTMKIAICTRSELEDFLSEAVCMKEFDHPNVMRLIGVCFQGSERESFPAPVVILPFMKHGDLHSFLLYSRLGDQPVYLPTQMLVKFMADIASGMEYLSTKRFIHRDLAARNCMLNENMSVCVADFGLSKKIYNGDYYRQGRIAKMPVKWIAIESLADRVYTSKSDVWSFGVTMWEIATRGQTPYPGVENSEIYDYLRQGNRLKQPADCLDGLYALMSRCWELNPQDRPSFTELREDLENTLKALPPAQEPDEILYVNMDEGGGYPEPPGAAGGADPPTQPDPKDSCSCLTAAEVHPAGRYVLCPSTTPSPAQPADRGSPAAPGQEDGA

Nc1ccc(-c2ccc3ncc4c(=O)[nH]c(=O)n(-c5cccc(C(F)(F)F)c5)c4c3n2)cn1 [Compound 5, 9-(6-aminopyridin-3-yl)-1-(3-(trifluoromethyl)phenyl)pyrimido[5,4-c][1,5]naphthyridine-2,4(1H,3H)-dione]
IC50 (ERK2): > 10000 nM
IC50 (AXL): 2140 nM
inhibitory activity for the kinases listed in Table 3 [1]: no inhibitory activity
Inhibitory rate (%), Glutamate, NMDA, Phencyclidine [2]: 8%
